According to US20180008717A1, “PHARMACEUTICAL COMPOSITION WITH ANALGESIC AND ANTI-INFLAMMATORY ACTIVITY” (priority 2016, published 2018):
Structures can show the parent of a compound that is named as a salt.

Key:
Format in all cases: in vivo
[1] = tested on: mice; experiment: Hot plate test (topical ointment); details: hot plate 55 degrees Celsius, 2 percent w/w ointment topically 5 min before, cut-off 60 seconds, mean±SEM
Procedure: (§1) Example 3 illustrates the analgesic activity of the esters evaluated using models of providing thermal stimuli (hot plate) and chemical stimuli (formalin, capsaicin and allyl isothiocyanate) to the subjects i.e., mice.
TEST 1: Hot plate test: The hot plate test (HPT) is often used for investigation of a noxious stimulus (heat) in models of acute pain. Classically, the latency of the animal's response to the stimulus is recorded as the dependent variable.
All compounds, including BZC, were applied topically in an ointment (2 percent weight by weight based on the total weight of formulation) prepared according to the procedure described in Example 1. The ointments were applied both to the palmar and plantar surfaces of the paws of the mice by gently rubbing 5 min before analgesic activity evaluation. A corresponding amount of the ointment base were similarly applied for mice used as control animals. The mice were placed on a hot plate maintained at 55 degrees Celsius, one at a time. In this experiment, latency to respond to the heat stimulus was determined by the amount of time (in seconds) it took for a mouse to lick one of its paws. Cut-off time was fixed at 60 seconds to minimize the tissue damage that occurs during prolonged contact with heated surface. All values are expressed as the mean±standard errors of the mean (SEM) in all the tables.

[2] = tested on: mice; experiment: Capsaicin test (topical ointment); details: capsaicin 6 micrograms/paw s.c., 2 percent w/w ointment topically 5 min before, observed 5 minutes, mean±SEM
Text: as §1
TEST 2: Capsaicin test: Capsaicin (8-methyl-N-vanillyl-6-nonenamide), the pungent substance obtained from hot red pepper, is used to evaluate analgesic activity on mice, for compounds synthesized herein.
All compounds, including BZC, were applied topically as an ointment (2 percent weight by weight based on the total weight of formulation) prepared according to the procedure described in Example 2. The ointments were applied to the affected paws' surface by gently rubbing 5 min before analgesic activity evaluation. A corresponding amount of the ointment base were similarly applied for mice used as control animals. To evaluate analgesic activity 20 microliter of capsaicin solution in 1,2-propylene glycol (6 micrograms/paw) was injected subcutaneously under the skin of the dorsal surface of the hindpaw. Animals were observed individually for 5 minutes after capsaicin administration. The amount of time that mice spent licking the injected paw was recorded and considered as an index of pain.

[3] = tested on: mice; experiment: Formalin test, early phase (topical ointment); details: 20 microliter 2 percent formalin s.c., 2 percent w/w ointment topically 5 minutes before, 0 to 5 min (early phase), mean±SEM
Procedure: as §1
TEST 3: Formalin test: The formalin test was used to determine the potential analgesic effects of compounds for states of persistent pain in which tissue damage occurs. The nociceptive response produced by formalin is biphasic: an early response (0 to 5 min after injection) and a late response (20 to 30 minutes after injection). These two phases can be distinguished pharmacologically: phase 1 is supposed to represent a direct chemical stimulation of nociceptors while phase 2 is thought to involve inflammation. Aiming at assessment precisely response caused by a burst of activity from pain fibers we measured the licking time as an indicator of nociception only during the first (early) phase. All compounds, including BZC, were applied topically in an ointment (2 percent weight by weight based on the total weight of formulation) prepared according to the procedure described in Example 2. The ointments were applied to the affected paws' surface by gently rubbing 5 minutes before analgesic activity evaluation. A corresponding amount of the ointment base were similarly applied for mice used as control animals. After that, 20 microliter of a 2 percent formalin solution in 0.9 percent NaCl (w/w) was injected subcutaneously into the dorsal surface of the hindpaw. The animal then was placed in an individual plexiglass cage. The time spent by the animal in licking the injected paw was measured from 0 to 5 min (early phase) after formalin administration and was considered as an indicator of pain response.

[4] = tested on: mice; experiment: Allyl isothiocyanate (AITC, TRPA1 agonist) test (topical ointment); details: 20 microliters 0.5 percent AITC s.c., 2 percent w/w ointment topically 5 min before, observed 10 minutes, mean±SEM
Procedure: as §1
TEST 4: Allyl isothiocyanate test: The analgesic activity was evaluated by a model of chemical stimulus with the use of TRPA1 agonist—allyl isothiocyanate (AITC).
20 Microliters of 0.5 percent (w/w in 1,2-propylene glycol) AITC solution was injected subcutaneously under the skin of the dorsal surface of the right hindpaw. All compounds, including BZC, were applied topically in an ointment (2 percent weight by weight based on the total weight of formulation) prepared according to the procedure described in Example 2. The ointments were applied to the affected paws' surface by gently rubbing 5 min before analgesic activity evaluation. A corresponding amount of the ointment base were similarly applied for mice used as control animals. AITC dose was selected based on our preliminary trials and from literature citations. Animals were observed individually for 10 minutes after AITC administration. The amount of time that mice spent licking the injected paw (reaction time in seconds) was recorded and considered as an index of pain.

[5] = tested on: rat paw; experiment: AITC-induced rat paw edema assay; details: for ability to decrease the AITC-induced inflammatory state compared with ibuprofen: 2 percent w/w ointment topically; for time of inflammation maximum following AITC injection: 2 percent w/w ointment, vehicle edema maximum at 3 hours; for level of AITC-induced edema (volume of affected paw): AITC 100 microgram per paw, 2 percent w/w ointment topically 30 minutes before and at each time point, percentage of the control
Procedure: One-way analysis of variance (ANOVA) followed by Tukey's post hoc comparison.
The anti-inflammatory effect was determined using an AITC-induced rat paw edema assay. […] The ointments were additionally applied by gently rubbing on the affected paw at each time point.

Compound	Reaction time (latency to lick a paw) [1]	Reaction time (latency to lick a paw) ([1]; listed as BZC)	Licking time [2]	Licking time [3]	Licking time [4]	Reaction time (latency to lick a paw) ([1]; listed as COMPOUND 1, hydrochloride)	Reaction time (latency to lick a paw) ([1]; listed as compound 1, hydrochloride)	ability to decrease the AITC-induced inflammatory state compared with ibuprofen [5]	time of inflammation maximum following AITC injection [5]	level of AITC-induced edema (volume of affected paw) [5]	Reaction time (latency to lick a paw) ([1]; listed as COMPOUND 2, hydrochloride)	Reaction time (latency to lick a paw) ([1]; listed as compound 2, hydrochloride)	Reaction time (latency to lick a paw) ([1]; listed as COMPOUND 3, hydrochloride)	Reaction time (latency to lick a paw) ([1]; listed as compound 3, hydrochloride)	Reaction time (latency to lick a paw) ([1]; listed as COMPOUND 4, hydrochloride)	Reaction time (latency to lick a paw) ([1]; listed as compound 4, hydrochloride)
CCOC(=O)c1ccc(N)cc1 [Benzocaine, benzocaine, reference compound]	18.3 ± 0.9 s	about 18.3 sec	28.7 ± 6.6 s	36.3 ± 2.4 s	48.0 ± 2.0 s	–	–	–	–	–	–	–	–	–	–	–
CC(C)[C@@H]1CC[C@@H](C)C[C@H]1OC(=O)CCCN [Compound 1, (1R,2S,5R)-2-isopropyl-5-methylcyclohexyl-4-aminobutyrate hydrochloride]	–	–	4.3 ± 0.9 s	30.3 ± 7.4 s	2.7 ± 0.3 s	30.2 ± 2.6 s	about 30.2 sec	exceed reference drug ibuprofen	about 1.5 hours	136%	–	–	–	–	–	–
Cc1ccc(C(C)C)c(OC(=O)CCCN)c1.Cl [Compound 2, 2-isopropyl-5-methylphenyl 4-aminobutyrate hydrochloride]	–	–	19.7 ± 2.6 s	52.2 ± 6.6 s	20.3 ± 5.8 s	–	–	exceed reference drug ibuprofen	about 1.5 hours	112%	21.3 ± 0.9 s	about 21.3 sec	–	–	–	–
Cc1ccc(C(C)C)cc1OC(=O)CCCN.Cl [Compound 3, 5-isopropyl-2-methylphenyl 4-aminobutyrate hydrochloride]	–	–	12.0 ± 1.2 s	31.1 ± 8.3 s	22.8 ± 4.3 s	–	–	relatively comparable effects with ibuprofen	about 1.5 hours	–	–	–	19.3 ± 3.8 s	about 19.3 sec	–	–
COc1ccccc1OC(=O)CCCN.Cl [Compound 4, 2-methoxylphenyl 4-aminobutyrate hydrochloride]	–	–	24.3 ± 3.3 s	47.6 ± 9.8 s	25.3 ± 1.5 s	–	–	relatively comparable effects with ibuprofen	about 1.5 hours	–	–	–	–	–	16.5 ± 3.7 s	about 16.5 sec
CC(C)Cc1ccc(C(C)C(=O)O)cc1 (stereo not drawn) [ibuprofen, reference compound]	–	–	–	–	–	–	–	–	about 1.5 hours	–	–	–	–	–	–	–
